The text below walks through data of PubChem BioAssay (NCI).

Test systems include HOP-62 NSCLC; HCC-2998 colon; OVCAR-3 ovarian; BT-549 breast; KM12 colon; MDA-MB-231 breast; MCF7 breast; TK-10 renal; IGROV1 ovarian; RPMI-8226 leukemia.
Holding throughout (test): NCI tumour cell line growth inhibition, 48 h

The structures appear in SMILES notation.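 1) Cells in 96-well plates. 2) Compound, 48 h, 5 concentrations. 3) Linear interpolation between surrounding doses. 4) Unreached endpoint = highest concentration. GI50: concentration for 50% inhibition of growth. The concentration for full growth arrest is given as TGI.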

On to `CCCCCCCCCCn1cc[n+](C)c1`, for which the GI50 was 3.16 µM in the assay on HOP-62 NSCLC; 1560 nM with HCC-2998 colon; 1940 nM in the assay with OVCAR-3 ovarian; 1560 nM in the assay on BT-549 breast; 1570 nM with KM12 colon; 2730 nM in the assay with MDA-MB-231 breast. The GI50 in the assay with MCF7 breast is 1690 nM; in the assay on TK-10 renal, 1240 nM; in the assay on IGROV1 ovarian, 2070 nM; in the assay with RPMI-8226 leukemia, 109 nM. Besides, the TGI in the assay with HOP-62 NSCLC came to 17.5 µM; with HCC-2998 colon, 11.2 µM; in the assay with OVCAR-3 ovarian, 8.59 µM; in the assay on BT-549 breast, 8.2 µM; in the assay on KM12 colon, 5.75 µM; in the assay on MDA-MB-231 breast, 16.9 µM. In addition, the TGI came to 13.6 µM with MCF7 breast, 9.58 µM in the assay with TK-10 renal, 10.1 µM in the assay on IGROV1 ovarian and 0.448 µM in the assay with RPMI-8226 leukemia.
As to `Nc1n[nH]c2cccc(C#Cc3cccc(C(=O)Nc4ccc(CN5CCOCC5)c(C(F)(F)F)c4)c3)c12`, the GI50 was 2.88 µM with HOP-62 NSCLC; 3000 nM in the assay with HCC-2998 colon; 3480 nM in the assay on OVCAR-3 ovarian; 2140 nM with BT-549 breast; 2810 nM in the assay on KM12 colon; 1300 nM in the assay on MDA-MB-231 breast. Besides, the GI50 with MCF7 breast was 2410 nM; in the assay with TK-10 renal, 4220 nM; in the assay with IGROV1 ovarian, 2350 nM; with RPMI-8226 leukemia it was 1760 nM. In addition, the TGI with HOP-62 NSCLC is 10.1 µM; in the assay on HCC-2998 colon it was 13.9 µM; with OVCAR-3 ovarian, 12.6 µM; with BT-549 breast, 6.03 µM; in the assay with KM12 colon it was 9.65 µM; in the assay with MDA-MB-231 breast, 4.7 µM. The TGI with MCF7 breast was determined as 10.3 µM; in the assay with TK-10 renal, 12.9 µM; in the assay on IGROV1 ovarian, 7.01 µM; in the assay with RPMI-8226 leukemia it was 5.62 µM.
For `Cn1ccc2c3c(Oc4ccc(NC(N)=O)cc4)ccnc3ccc21`, the GI50 was above 100 µM in the assay with HOP-62 NSCLC; above 100000 nM with HCC-2998 colon; above 100000 nM in the assay with OVCAR-3 ovarian; above 100000 nM in the assay on BT-549 breast; above 100000 nM in the assay with KM12 colon; above 100000 nM in the assay with MDA-MB-231 breast. Moreover, the GI50 with MCF7 breast, in the assay on TK-10 renal, in the assay on IGROV1 ovarian and with RPMI-8226 leukemia was above 100000 nM each time. Further, the TGI in the assay with HOP-62 NSCLC, in the assay on HCC-2998 colon, in the assay on OVCAR-3 ovarian, in the assay with BT-549 breast, in the assay with KM12 colon and in the assay with MDA-MB-231 breast was above 100 µM each time. In addition, the TGI in the assay on MCF7 breast, in the assay on TK-10 renal, in the assay on IGROV1 ovarian and in the assay on RPMI-8226 leukemia was above 100 µM in each case.
On to `O=C(/C=C/c1ccc(O)cc1)c1ccc(O)cc1`, for which the TGI in the assay on HOP-62 NSCLC is 49.1 µM; with HCC-2998 colon, 52.7 µM; in the assay with OVCAR-3 ovarian, 52.1 µM; in the assay on BT-549 breast, above 75.3 µM; in the assay with KM12 colon it was 19.8 µM; in the assay on MDA-MB-231 breast, above 100 µM. Moreover, the TGI with MCF7 breast is above 100 µM; with TK-10 renal, above 100 µM; in the assay with IGROV1 ovarian it was above 100 µM; in the assay on RPMI-8226 leukemia it was 69 µM.
As to `Nc1ccc(C2=NNC(=O)Cc3cc4c(cc32)OCCO4)cc1Cl`, the GI50 with HOP-62 NSCLC is 5.12 µM; with HCC-2998 colon, 3730 nM; in the assay with OVCAR-3 ovarian it was 1510 nM; in the assay on BT-549 breast, 5990 nM; in the assay with KM12 colon, 1740 nM; in the assay on MDA-MB-231 breast it was 27100 nM. Besides, the GI50 in the assay with MCF7 breast was 1990 nM; in the assay with TK-10 renal it was 18900 nM; in the assay on IGROV1 ovarian, 4540 nM; in the assay on RPMI-8226 leukemia it was 7560 nM. Also, the TGI is above 50 µM in the assay on HOP-62 NSCLC; above 50 µM with HCC-2998 colon; 6.47 µM in the assay on OVCAR-3 ovarian; above 50 µM with BT-549 breast; above 50 µM with KM12 colon; above 50 µM in the assay on MDA-MB-231 breast. Besides, the TGI in the assay on MCF7 breast, in the assay on TK-10 renal, with IGROV1 ovarian and in the assay on RPMI-8226 leukemia was above 50 µM each time.
For `O=S(=O)(c1ccccc1)N1CCN(S(=O)(=O)c2ccccc2)c2ccccc21`, the TGI in the assay with HOP-62 NSCLC, with HCC-2998 colon, in the assay on OVCAR-3 ovarian, in the assay on BT-549 breast, in the assay with KM12 colon and in the assay with MDA-MB-231 breast was above 100 µM each time. Also, the TGI with MCF7 breast, in the assay with TK-10 renal, in the assay on IGROV1 ovarian and in the assay with RPMI-8226 leukemia was above 100 µM throughout.
Consider `CCCOc1cc2ccccc2cc1C(=O)Nc1nc(N)c2c(ccc3nccc32)[nH]1`, for which the GI50 in the assay on HOP-62 NSCLC was 0.0798 µM; with HCC-2998 colon, 220 nM; with OVCAR-3 ovarian, 25.4 nM; in the assay with BT-549 breast, 99.8 nM; in the assay on KM12 colon, 44.8 nM; in the assay on MDA-MB-231 breast, 1060 nM. Further, the GI50 in the assay with MCF7 breast is 45.9 nM; with TK-10 renal it was 458 nM; with IGROV1 ovarian, 519 nM; in the assay on RPMI-8226 leukemia it was 113 nM. Also, the TGI in the assay on HOP-62 NSCLC came to 2.69 µM; in the assay with HCC-2998 colon, 1.86 µM; with OVCAR-3 ovarian, 0.0819 µM; with BT-549 breast, 2.11 µM; in the assay on KM12 colon it was 1.53 µM; in the assay with MDA-MB-231 breast, 2.85 µM. Also, the TGI stood at 1.5 µM with MCF7 breast, 2.06 µM in the assay with TK-10 renal, 2.89 µM in the assay with IGROV1 ovarian and 2.15 µM in the assay on RPMI-8226 leukemia.
Consider `CCC(=C/[C@H](C)C/C=C/C(C)=C/[C@@H](C)C(=O)[C@@H](C)[C@H](O)[C@@H](C)CC)/C=C/[C@H]1OC(=O)C=C[C@@H]1C`, for which the GI50 was below 0.01 µM in the assay on HOP-62 NSCLC; below 10 nM with HCC-2998 colon; below 10 nM in the assay on OVCAR-3 ovarian; below 10 nM in the assay with BT-549 breast; below 10 nM in the assay on KM12 colon; below 10 nM in the assay with MDA-MB-231 breast. Besides, the GI50 in the assay with MCF7 breast, with TK-10 renal, with IGROV1 ovarian and with RPMI-8226 leukemia was below 10 nM in each case. The TGI in the assay on HOP-62 NSCLC was 1.01 µM; in the assay with HCC-2998 colon, below 0.01 µM; with OVCAR-3 ovarian it was 3.96 µM; with BT-549 breast, 0.429 µM; in the assay with KM12 colon, 1.15 µM; in the assay with MDA-MB-231 breast it was 2.18 µM. Further, the TGI in the assay with MCF7 breast came to 1.26 µM; in the assay on TK-10 renal it was 1.03 µM; with IGROV1 ovarian it was 7.67 µM; with RPMI-8226 leukemia it was 1.19 µM.
